According to the CheMixHub viscosity set:

Assay: xn = mol fraction of the nth substance listed

O=S1(=O)CCCC1 + O
Settings | viscosity [mPa·s]
293.15 K, 101 kPa, x1 = 0.02074 | 1.163
293.15 K, 101 kPa, x1 = 0.04649 | 1.387
293.15 K, 101 kPa, x1 = 0.07703 | 1.634
293.15 K, 101 kPa, x1 = 0.1147 | 1.969
293.15 K, 101 kPa, x1 = 0.1615 | 2.405
293.15 K, 101 kPa, x1 = 0.2247 | 3.044
293.15 K, 101 kPa, x1 = 0.3102 | 3.813
293.15 K, 101 kPa, x1 = 0.4328 | 4.899
293.15 K, 101 kPa, x1 = 0.6323 | 6.59
293.15 K, 101 kPa, x1 = 0.7807 | 8.243
298 K, 100 kPa, x1 = 0.0215 | 1
298 K, 100 kPa, x1 = 0.035 | 1.11
298 K, 100 kPa, x1 = 0.0679 | 1.32
298 K, 100 kPa, x1 = 0.0888 | 1.51
298 K, 100 kPa, x1 = 0.121 | 1.74
298 K, 100 kPa, x1 = 0.221 | 2.52
298 K, 100 kPa, x1 = 0.569 | 5.19
298.15 K, 101 kPa, x1 = 0.02074 | 1.038
298.15 K, 101 kPa, x1 = 0.02077 | 1.01
298.15 K, 101 kPa, x1 = 0.04267 | 1.17
298.15 K, 101 kPa, x1 = 0.04649 | 1.221
298.15 K, 101 kPa, x1 = 0.07103 | 1.59
298.15 K, 101 kPa, x1 = 0.07703 | 1.458
298.15 K, 101 kPa, x1 = 0.09929 | 1.64
298.15 K, 101 kPa, x1 = 0.1147 | 1.735
298.15 K, 101 kPa, x1 = 0.1615 | 2.129
298.15 K, 101 kPa, x1 = 0.2247 | 2.656
298.15 K, 101 kPa, x1 = 0.25 | 2.738
298.15 K, 101 kPa, x1 = 0.3102 | 3.347
298.15 K, 101 kPa, x1 = 0.4328 | 4.263
298.15 K, 101 kPa, x1 = 0.5 | 4.583
298.15 K, 101 kPa, x1 = 0.6323 | 5.775
298.15 K, 101 kPa, x1 = 0.75 | 6.772
298.15 K, 101 kPa, x1 = 0.7807 | 7.049
298.15 K, 101 kPa, x1 = 0.85 | 7.49
303.15 K, 101 kPa, x1 = 0.0147 | 0.8884
303.15 K, 101 kPa, x1 = 0.02074 | 0.927
303.15 K, 101 kPa, x1 = 0.02077 | 0.91
303.15 K, 101 kPa, x1 = 0.0208 | 0.9245
303.15 K, 101 kPa, x1 = 0.04267 | 1.04
303.15 K, 101 kPa, x1 = 0.04649 | 1.093
303.15 K, 101 kPa, x1 = 0.0701 | 1.255
303.15 K, 101 kPa, x1 = 0.07103 | 1.34
303.15 K, 101 kPa, x1 = 0.0744 | 1.273
303.15 K, 101 kPa, x1 = 0.0958 | 1.429
303.15 K, 101 kPa, x1 = 0.09929 | 1.44
303.15 K, 101 kPa, x1 = 0.1435 | 1.761
303.15 K, 101 kPa, x1 = 0.1586 | 1.852
303.15 K, 101 kPa, x1 = 0.1924 | 2.101
303.15 K, 101 kPa, x1 = 0.25 | 2.287
303.15 K, 101 kPa, x1 = 0.3022 | 2.856
303.15 K, 101 kPa, x1 = 0.4496 | 3.865
303.15 K, 101 kPa, x1 = 0.5 | 3.797
303.15 K, 101 kPa, x1 = 0.6077 | 4.963
303.15 K, 101 kPa, x1 = 0.6106 | 5.004
303.15 K, 101 kPa, x1 = 0.749 | 6.085
303.15 K, 101 kPa, x1 = 0.75 | 5.994
303.15 K, 101 kPa, x1 = 0.7813 | 6.555
303.15 K, 101 kPa, x1 = 0.85 | 7.236
313.15 K, 101 kPa, x1 = 0.0147 | 0.7245
313.15 K, 101 kPa, x1 = 0.02077 | 0.74
313.15 K, 101 kPa, x1 = 0.0208 | 0.753
313.15 K, 101 kPa, x1 = 0.0701 | 1.014
313.15 K, 101 kPa, x1 = 0.07103 | 1.01
313.15 K, 101 kPa, x1 = 0.0744 | 1.029
313.15 K, 101 kPa, x1 = 0.0958 | 1.152
313.15 K, 101 kPa, x1 = 0.09929 | 1.15
313.15 K, 101 kPa, x1 = 0.1435 | 1.414
313.15 K, 101 kPa, x1 = 0.1586 | 1.484
313.15 K, 101 kPa, x1 = 0.1924 | 1.681
313.15 K, 101 kPa, x1 = 0.25 | 1.928
313.15 K, 101 kPa, x1 = 0.29 | 2.219
313.15 K, 101 kPa, x1 = 0.3022 | 2.267
313.15 K, 101 kPa, x1 = 0.4496 | 3.059
313.15 K, 101 kPa, x1 = 0.5 | 3.212
313.15 K, 101 kPa, x1 = 0.6077 | 3.923
313.15 K, 101 kPa, x1 = 0.6106 | 3.962
313.15 K, 101 kPa, x1 = 0.749 | 4.807
313.15 K, 101 kPa, x1 = 0.75 | 4.743
313.15 K, 101 kPa, x1 = 0.7813 | 5.182
313.15 K, 101 kPa, x1 = 0.85 | 5.24
323.15 K, 101 kPa, x1 = 0.0147 | 0.6051
323.15 K, 101 kPa, x1 = 0.02077 | 0.63
323.15 K, 101 kPa, x1 = 0.0208 | 0.629
323.15 K, 101 kPa, x1 = 0.04267 | 0.7
323.15 K, 101 kPa, x1 = 0.0701 | 0.841
323.15 K, 101 kPa, x1 = 0.07103 | 0.84
323.15 K, 101 kPa, x1 = 0.0744 | 0.8536
323.15 K, 101 kPa, x1 = 0.0958 | 0.9537
323.15 K, 101 kPa, x1 = 0.09929 | 0.96
323.15 K, 101 kPa, x1 = 0.1435 | 1.165
323.15 K, 101 kPa, x1 = 0.1586 | 1.221
323.15 K, 101 kPa, x1 = 0.1924 | 1.379
323.15 K, 101 kPa, x1 = 0.29 | 1.814
323.15 K, 101 kPa, x1 = 0.3022 | 1.85
323.15 K, 101 kPa, x1 = 0.4496 | 2.486
323.15 K, 101 kPa, x1 = 0.6077 | 3.184
323.15 K, 101 kPa, x1 = 0.6106 | 3.217
323.15 K, 101 kPa, x1 = 0.749 | 3.896
323.15 K, 101 kPa, x1 = 0.7813 | 4.197
